Source: patent publication US20170368082A1, “FORMULATIONS OF BRINCIDOFOVIR” (priority 2016, published 2017)

Assay: Tissue distribution by quantitative whole-body autoradiography (QWBA)
Type: in vivo, male Sprague Dawley and Long-Evans rats
Conditions: PO 15 mg/kg, Group 7
Description: The study utilized 4 groups of male SD rats (albino), and 3 groups of male LE rats (pigmented); a total of 39 rats. All animals were obtained from Hilltop Lab Animals, Inc. (Scottdale, Pa.). […] Rats in Group 5 were administered a single 2-h IV infusion of [^14C]brincidofovir at a target dose of 2 mg/kg. […] Three dosing formulations (one for high dose IV, one for low dose IV, and one for PO dose) were prepared at QPS on the day of dosing. The IV formulation for Groups 1, 2, 3, and 4 contained a vehicle of 10 mM sodium phosphate buffer in 5% dextrose solution at pH 8.0(±0.1).
Each animal, at their respective termination time points, was euthanized for QWBA analysis immediately after blood collection. One rat per time point per Group was euthanized as listed below.
The blood samples were maintained on wet ice (approximately 4° C.) and then centrifuged to obtain plasma within 1 h of the blood collection time. Centrifuge settings were recorded in the study notebook. Duplicate aliquots of plasma (0.050 mL) were analyzed for radioactivity using direct counting by LSC, and residual plasma was stored at approximately −70° C. and was saved for possible future analysis under a separate study protocol. Residual red blood cells were discarded as radioactive waste.
The pinna, distal limbs, hair, and tail were removed from each frozen carcass and each frozen carcass was embedded in an aqueous suspension of approximately 2% (w/v) carboxymethylcellulose and frozen into a block. The blocks were stored at approximately −20° C. prior to sectioning. Each blocked carcass was mounted on the object stage of a cryomicrotome (Leica CM3600 Cryomacrocut, Nussloch, Germany and Vibratome 9800, St. Louis, Mo.) maintained at approximately −20° C. and internal standards (3), which were plasma fortified with [^14C]-glucose at one concentration (approximately 0.05 μCi/mL), were placed into the frozen blocks, prior to sectioning, and were used for section thickness quality control. A number of whole-body sections (approximately 40 μm thick) were taken in the sagittal plane at various levels of interest using a whole-body cryomicrotome set at −20° C. Sagittal sections (20-50 μm thick) of frozen carcasses were exposed to phosphor imaging plates. Regions of images in tissues were converted to concentrations using standards. All of the major tissues, organs, and biological fluids were represented.
Tissue concentration data was determined for the following tissues and/or contents: adipose (brown and white), adrenal gland, bile (in duct), blood (cardiac), bone, bone marrow, brain (cerebrum, cerebellum, medulla), cecum (and contents), large intestine (and contents), epididymis, esophagus, eye (uvea and lens), Harderian gland, heart, kidney (cortex and medulla), liver, lung, lymph node, pancreas, pituitary gland, prostate gland, salivary gland, seminal vesicles, skeletal muscle, skin (pigmented and non-pigmented), small intestine (and contents), stomach (gastric mucosa and contents), spleen, spinal cord, testis, thymus, thyroid, and urinary bladder (and contents).
The imaging plate and sections were placed in light-tight exposure cassettes, in a copper-lined lead safe, for a 4-day exposure at room temperature. […] Quantification was performed by image densitometry using MCD image analysis software (v. 7.0, Interfocus Imaging Ltd) and a standard curve constructed from the integrated response [i.e., Molecular Dynamics Counts per square millimeter (MDC/mm^2)] and the nominal concentrations of the ^14C-calibration standards. The concentrations of radioactivity were expressed as the μg equivalents of [^14C]brincidofovir per gram sample (μg equiv/g). A lower limit of quantification (LLOQ) was applied to the data (See section 6.7.4).
Tissue concentrations that fell below the LLOQ were identified as being below the quantification limit (BQL). Tissue areas that were not visualized on autoradiographic images were identified as no sample (NS) and reported as BQL.

For CCCCCCCCCCCCCCCCOCCCOP(=O)(O)CO[C@H](CO)Cn1ccc(N)nc1=O [[14C]brincidofovir], the AUCall (Adipose (brown)) was 24.3703 μg equiv · h/g, the “AUCinf—obs” value (Adipose (brown)) was 24.4043 μg equiv · h/g and the Tmax (Adipose (brown)) was 4 h. For the same molecule, the t1/2 (Adipose (brown)) was 233.5 h, the AUCall (Adipose (white)) was 1.1215 μg equiv · h/g and the “AUCinf—obs” value (Adipose (white)) was 2.4387 μg equiv · h/g. The Tmax (Adipose (white)) was 4 h, the t1/2 (Adipose (white), estimate (footnote a)) was 17.6 h and the AUCall (Adrenal Gland) was 74.5860 μg equiv · h/g. For the same molecule, the “AUCinf—obs” value (Adrenal Gland) was 58.7136 μg equiv · h/g, the Tmax (Adrenal Gland) was 8 h and the t1/2 (Adrenal Gland) was 43.2 h. The AUCall (Blood (cardiac)) was 21.9165 μg equiv · h/g, the “AUCinf—obs” value (Blood (cardiac)) was 22.3146 μg equiv · h/g and the Tmax (Blood (cardiac)) was 8 h. For the same molecule, the t1/2 (Blood (cardiac), estimate (footnote a)) was 32.8 h, the AUCall (Bone Marrow) was 68.7413 μg equiv · h/g and the “AUCinf—obs” value (Bone Marrow) was 50.2191 μg equiv · h/g. It also gave a Tmax (Bone Marrow) of 8 h, a t1/2 (Bone Marrow, estimate (footnote a)) of 96.3 h and an AUCall (Bone) of 1.8470 μg equiv · h/g. For the same molecule, the “AUCinf—obs” value (Bone) was 3.7274 μg equiv · h/g, the Tmax (Bone) was 4 h and the t1/2 (Bone, estimate (footnote a)) was 53.9 h. It also gave an AUCall (Brain (cerebellum)) of 0.8610 μg equiv · h/g, a Tmax (Brain (cerebellum)) of 8 h and an AUCall (Brain (cerebrum)) of 0.7650 μg equiv · h/g. For the same molecule, the Tmax (Brain (cerebrum)) was 8 h, the AUCall (Brain (medulla)) was 0.5770 μg equiv · h/g and the Tmax (Brain (medulla)) was 4 h. The AUCall (Cecum) was 174.4118 μg equiv · h/g, the “AUCinf—obs” value (Cecum) was 142.1970 μg equiv · h/g and the Tmax (Cecum) was 8 h. For the same molecule, the t1/2 (Cecum, estimate (footnote a)) was 69.9 h, the AUCall (Epididymis) was 31.1150 μg equiv · h/g and the “AUCinf—obs” value (Epididymis) was 22.3936 μg equiv · h/g. It also gave a Tmax (Epididymis) of 4 h, a t1/2 (Epididymis, estimate (footnote a)) of 89.0 h and an AUCall (Esophagus) of 27.9015 μg equiv · h/g. For the same molecule, the “AUCinf—obs” value (Esophagus) was 29.1559 μg equiv · h/g, the Tmax (Esophagus) was 4 h and the t1/2 (Esophagus) was 37.2 h. For the same molecule, the AUCall (Eye (uveal tract)) was 16.2765 μg equiv · h/g, the “AUCinf—obs” value (Eye (uveal tract)) was 19.8244 μg equiv · h/g and the Tmax (Eye (uveal tract)) was 8 h. The t1/2 (Eye (uveal tract), estimate (footnote a)) was 57.7 h, the AUCall (Harderian Gland) was 63.7645 μg equiv · h/g and the “AUCinf—obs” value (Harderian Gland) was 50.8931 μg equiv · h/g. It also gave a Tmax (Harderian Gland) of 8 h, a t1/2 (Harderian Gland, estimate (footnote a)) of 151.8 h and an AUCall (Heart) of 31.1603 μg equiv · h/g. For the same molecule, the “AUCinf—obs” value (Heart) was 23.2365 μg equiv · h/g, the Tmax (Heart) was 8 h and the t1/2 (Heart, estimate (footnote a)) was 110.8 h. For the same molecule, the AUCall (Kidney Cortex) was 804.4980 μg equiv · h/g, the “AUCinf—obs” value (Kidney Cortex) was 822.5076 μg equiv · h/g and the Tmax (Kidney Cortex) was 8 h. For the same molecule, the t1/2 (Kidney Cortex, estimate (footnote a)) was 244.8 h, the AUCall (Kidney Medulla) was 342.0130 μg equiv · h/g and the “AUCinf—obs” value (Kidney Medulla) was 286.4307 μg equiv · h/g. The Tmax (Kidney Medulla) was 8 h, the t1/2 (Kidney Medulla) was 41.2 h and the AUCall (Large Intestine) was 140.3313 μg equiv · h/g. The “AUCinf—obs” value (Large Intestine) was 123.4302 μg equiv · h/g, the Tmax (Large Intestine) was 8 h and the t1/2 (Large Intestine, estimate (footnote a)) was 37.6 h. The AUCall (Liver) was 1426.6340 μg equiv · h/g, the “AUCinf—obs” value (Liver) was 1435.9700 μg equiv · h/g and the Tmax (Liver) was 4 h.
